Laboratory results published in ChEMBL document CHEMBL1777737, “Solid phase synthesis of tariquidar-related modulators of ABC transporters preferring breast cancer resistance protein (ABCG2)” (Bioorg Med Chem Lett, 2011).

Target: T1, Broad substrate specificity ATP-binding cassette transporter ABCG2 (Homo sapiens, UniProt Q9UNQ0)
T1 sequence (Q9UNQ0 whole entry): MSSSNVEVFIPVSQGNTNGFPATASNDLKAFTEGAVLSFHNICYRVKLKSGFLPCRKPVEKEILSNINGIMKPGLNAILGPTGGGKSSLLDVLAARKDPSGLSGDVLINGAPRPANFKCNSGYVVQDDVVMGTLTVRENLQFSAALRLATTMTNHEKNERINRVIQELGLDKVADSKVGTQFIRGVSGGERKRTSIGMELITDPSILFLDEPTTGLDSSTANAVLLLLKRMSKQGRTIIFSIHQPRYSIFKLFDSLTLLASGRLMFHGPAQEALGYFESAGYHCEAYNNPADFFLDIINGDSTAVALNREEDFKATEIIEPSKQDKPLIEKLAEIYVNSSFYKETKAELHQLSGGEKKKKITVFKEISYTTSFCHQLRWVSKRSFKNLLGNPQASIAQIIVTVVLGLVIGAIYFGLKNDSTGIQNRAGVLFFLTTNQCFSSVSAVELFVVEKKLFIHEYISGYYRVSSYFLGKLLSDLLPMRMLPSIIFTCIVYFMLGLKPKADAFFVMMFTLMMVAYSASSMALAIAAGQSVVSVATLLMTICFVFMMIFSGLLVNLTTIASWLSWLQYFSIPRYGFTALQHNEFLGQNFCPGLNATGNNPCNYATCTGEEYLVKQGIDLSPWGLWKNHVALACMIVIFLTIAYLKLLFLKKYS
Assay: Inhibition of ABCG2 expressed in human MCF7/Topo cells by Hoechst microplate assay
Type: cell-based
Conditions: not given

`COCCOCCOCCOc1cc2c(cc1OC)CCN(CCc1ccc(NC(=O)c3ccc(C(=O)OC)c(NC(=O)c4ccc5ncccc5c4)c3)cc1)C2` and `COCCOCCOCCOc1cc2c(cc1OC)CN(CCc1ccc(NC(=O)c3ccc(C(=O)OC)c(NC(=O)c4ccc5ncccc5c4)c3)cc1)CC2` are within 1.5-fold of each other in IC50: 0.508 µM for the first, 0.39 µM for the second.

First: COc1cc2c(cc1OC)CN(CCc1ccc(NC(=O)c3ccc(C(=O)O)c(NC(=O)c4ccc5ccccc5n4)c3)cc1)CC2
Second: COC(=O)c1ccc(C(=O)Nc2ccc(CCN3CCc4cc(OC)c(OC)cc4C3)cc2)cc1NC(=O)c1ccc2ccccc2n1
The IC50 of the first is higher: greater than 5 µM for the first, 0.059 µM for the second.

First: COc1cc2c(cc1OC)CN(CCc1ccc(NC(=O)c3ccc(C(=O)O)c(NC(=O)c4ccc5ncccc5c4)c3)cc1)CC2
Second: COC(=O)c1ccc(C(=O)Nc2ccc(CCN3CCc4cc(OC)c(OC)cc4C3)cc2)cc1NC(=O)c1ccc2ncccc2c1
The IC50 of the first is higher: greater than 100 µM for the first, 0.172 µM for the second. The second is the more potent here.

Compared with `COCCOCCOCCOc1cc2c(cc1OC)CN(CCc1ccc(NC(=O)c3ccc(C(=O)O)c(NC(=O)c4ccc5ccccc5n4)c3)cc1)CC2`, `COCCOCCOCCOc1cc2c(cc1OC)CCN(CCc1ccc(NC(=O)c3ccc(C(=O)O)c(NC(=O)c4ccc5ccccc5n4)c3)cc1)C2` is lower in IC50: greater than 50 µM for the first, 6.2 µM for the second.

`COCCOCCOCCOc1cc2c(cc1OC)CN(CCc1ccc(NC(=O)c3ccc(C(=O)O)c(NC(=O)c4ccc5ncccc5c4)c3)cc1)CC2` and `COCCOCCOCCOc1cc2c(cc1OC)CCN(CCc1ccc(NC(=O)c3ccc(C(=O)O)c(NC(=O)c4ccc5ncccc5c4)c3)cc1)C2` cannot be ordered by IC50: greater than 50 µM for the first, greater than 50 µM for the second.

`COCCOCCOCCOc1cc2c(cc1OC)CN(CCc1ccc(NC(=O)c3ccc(C(=O)OC)c(NC(=O)c4ccc5ccccc5n4)c3)cc1)CC2` and `COCCOCCOCCOc1cc2c(cc1OC)CCN(CCc1ccc(NC(=O)c3ccc(C(=O)OC)c(NC(=O)c4ccc5ccccc5n4)c3)cc1)C2` are within 1.5-fold of each other in IC50: 0.183 µM for the first, 0.13 µM for the second.

Target: ATP-dependent translocase ABCB1 (Homo sapiens, UniProt P08183)
Assay: Inhibition of ABCB1 expressed in Kb-V1 cells after 10 mins by calcein-AM assay
Type: cell-based
Conditions: not given

Sequence of ATP-dependent translocase ABCB1 (P08183 whole entry): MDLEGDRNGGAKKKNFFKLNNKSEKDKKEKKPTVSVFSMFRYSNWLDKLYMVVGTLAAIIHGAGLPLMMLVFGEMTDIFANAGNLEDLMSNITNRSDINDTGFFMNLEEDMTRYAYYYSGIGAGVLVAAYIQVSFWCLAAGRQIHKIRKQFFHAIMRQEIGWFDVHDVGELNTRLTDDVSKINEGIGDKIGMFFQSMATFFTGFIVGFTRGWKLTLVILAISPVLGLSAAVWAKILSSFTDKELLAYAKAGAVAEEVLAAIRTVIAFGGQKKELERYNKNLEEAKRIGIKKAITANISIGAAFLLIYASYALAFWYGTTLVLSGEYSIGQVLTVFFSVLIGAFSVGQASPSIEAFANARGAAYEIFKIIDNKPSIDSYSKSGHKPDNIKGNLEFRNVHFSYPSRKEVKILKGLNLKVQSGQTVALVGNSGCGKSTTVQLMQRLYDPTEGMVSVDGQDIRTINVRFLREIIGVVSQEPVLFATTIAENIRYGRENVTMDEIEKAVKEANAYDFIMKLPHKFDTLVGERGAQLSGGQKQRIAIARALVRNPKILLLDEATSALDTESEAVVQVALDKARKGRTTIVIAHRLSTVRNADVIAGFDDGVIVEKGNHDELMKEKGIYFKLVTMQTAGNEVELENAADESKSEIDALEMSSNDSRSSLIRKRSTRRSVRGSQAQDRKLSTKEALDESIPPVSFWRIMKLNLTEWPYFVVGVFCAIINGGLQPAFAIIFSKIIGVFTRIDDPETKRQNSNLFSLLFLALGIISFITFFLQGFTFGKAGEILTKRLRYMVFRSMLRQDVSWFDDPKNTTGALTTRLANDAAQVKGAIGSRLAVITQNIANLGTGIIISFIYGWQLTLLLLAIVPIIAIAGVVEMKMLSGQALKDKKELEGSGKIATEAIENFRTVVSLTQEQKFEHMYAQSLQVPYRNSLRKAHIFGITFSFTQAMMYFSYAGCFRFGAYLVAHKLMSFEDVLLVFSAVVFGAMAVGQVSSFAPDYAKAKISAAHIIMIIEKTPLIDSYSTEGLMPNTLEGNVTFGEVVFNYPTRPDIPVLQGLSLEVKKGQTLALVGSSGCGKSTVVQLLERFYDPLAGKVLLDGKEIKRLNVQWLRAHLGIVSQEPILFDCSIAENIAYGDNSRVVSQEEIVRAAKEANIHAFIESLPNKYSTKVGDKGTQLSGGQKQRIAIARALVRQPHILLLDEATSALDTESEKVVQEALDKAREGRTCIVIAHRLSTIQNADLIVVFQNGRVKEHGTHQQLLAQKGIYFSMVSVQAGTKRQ

`COCCOCCOCCOc1cc2c(cc1OC)CCN(CCc1ccc(NC(=O)c3ccc(C(=O)OC)c(NC(=O)c4ccc5ncccc5c4)c3)cc1)C2` and `COCCOCCOCCOc1cc2c(cc1OC)CN(CCc1ccc(NC(=O)c3ccc(C(=O)OC)c(NC(=O)c4ccc5ncccc5c4)c3)cc1)CC2` cannot be ordered by IC50: greater than 50 µM for the first, greater than 100 µM for the second.

`COc1cc2c(cc1OC)CN(CCc1ccc(NC(=O)c3ccc(C(=O)O)c(NC(=O)c4ccc5ccccc5n4)c3)cc1)CC2` and `COC(=O)c1ccc(C(=O)Nc2ccc(CCN3CCc4cc(OC)c(OC)cc4C3)cc2)cc1NC(=O)c1ccc2ccccc2n1` cannot be ordered by IC50: greater than 50 µM for the first, greater than 29 µM for the second.

`COc1cc2c(cc1OC)CN(CCc1ccc(NC(=O)c3ccc(C(=O)O)c(NC(=O)c4ccc5ncccc5c4)c3)cc1)CC2` and `COC(=O)c1ccc(C(=O)Nc2ccc(CCN3CCc4cc(OC)c(OC)cc4C3)cc2)cc1NC(=O)c1ccc2ncccc2c1` cannot be ordered by IC50: greater than 1 µM for the first, greater than 10 µM for the second.

`COCCOCCOCCOc1cc2c(cc1OC)CN(CCc1ccc(NC(=O)c3ccc(C(=O)O)c(NC(=O)c4ccc5ccccc5n4)c3)cc1)CC2` and `COCCOCCOCCOc1cc2c(cc1OC)CCN(CCc1ccc(NC(=O)c3ccc(C(=O)O)c(NC(=O)c4ccc5ccccc5n4)c3)cc1)C2` cannot be ordered by IC50: greater than 100 µM for the first, greater than 100 µM for the second.

`COCCOCCOCCOc1cc2c(cc1OC)CN(CCc1ccc(NC(=O)c3ccc(C(=O)O)c(NC(=O)c4ccc5ncccc5c4)c3)cc1)CC2` and `COCCOCCOCCOc1cc2c(cc1OC)CCN(CCc1ccc(NC(=O)c3ccc(C(=O)O)c(NC(=O)c4ccc5ncccc5c4)c3)cc1)C2` cannot be ordered by IC50: greater than 50 µM for the first, greater than 50 µM for the second.

`COCCOCCOCCOc1cc2c(cc1OC)CN(CCc1ccc(NC(=O)c3ccc(C(=O)OC)c(NC(=O)c4ccc5ccccc5n4)c3)cc1)CC2` and `COCCOCCOCCOc1cc2c(cc1OC)CCN(CCc1ccc(NC(=O)c3ccc(C(=O)OC)c(NC(=O)c4ccc5ccccc5n4)c3)cc1)C2` cannot be ordered by IC50: greater than 50 µM for the first, greater than 50 µM for the second.

Target: T2, ABCG2 (Homo sapiens, UniProt Q9UNQ0)
T2 sequence (Q9UNQ0 whole entry): T1 sequence (Q9UNQ0 whole entry)
Assay: Inhibition of ABCG2 expressed in human MCF7/Topo cells assessed as maximal inhibitory effect at IC50 concentration by Hoechst microplate assay
Type: cell-based
Conditions: MCF7/Topo cells expressing ABCG2, probe Hoechst dye, read-out: INH

In order of falling Emax:
1. COCCOCCOCCOc1cc2c(cc1OC)CCN(CCc1ccc(NC(=O)c3ccc(C(=O)OC)c(NC(=O)c4ccc5ncccc5c4)c3)cc1)C2  61%
2. COC(=O)c1ccc(C(=O)Nc2ccc(CCN3CCc4cc(OC)c(OC)cc4C3)cc2)cc1NC(=O)c1ccc2ncccc2c1  55%
3. COCCOCCOCCOc1cc2c(cc1OC)CN(CCc1ccc(NC(=O)c3ccc(C(=O)OC)c(NC(=O)c4ccc5ncccc5c4)c3)cc1)CC2  41%
